Laboratory results: EP0043971A1, “Indanoneoxyalkylpiperazine derivatives, the preparation thereof and pharmaceutical compositions containing the same” (priority 1980, dated 1982)
Like-named read-outs stand apart in the source and are kept apart here.

How the values were obtained:
[1] = tested on: weiblichen NMRI-Mäusen; assay: Sedative effect: inhibition of orientation hypermotility induced by a new environment, photoelectric measurement; assay type: in vivo, Maus; conditions: for ED50: Mus musculus, po, 0.5 h, Maus, read-out: Motilitätshemmung ED 50 %; for Wirkungsstärke (sedativ) der Referenzsubstanz / Motilitätshemmung um 50 %: -mal größere Dosen als Referenzsubstanz: relative to Chlorpromazin; for Wirkungsstärke (sedativ) der Referenzsubstanz: mouse p.o.; for sedative Wirkung: result in words
Source text: (§1) Sie eignen sich mit bevorzugter sedativ/transquilisierender und anti-monaminerger Wirkung als Sedativa/Hypnotika oder als Tranquilizer bzw. Neuroleptica. Andere erfindungsgemäße Verbindungen eignen sich wegen ihrer relativ selektiven blutdrucksenkenden Wirksamkeit zur Behandlung der Hypertonie und zur Entlastung des Herzen bei Herzinsuffizienz. ) Zum Nachweis der pharmakologischen Wirkungen wurden folgende Methoden verwendet: • 1. Sedative Wirkung • 4-8 Gruppen von jeweils 3 weiblichen NMRI-Mäusen erhalten die Substanz oral appliziert. Die photoelektrische Bestimmung der durch eine neue Umgebung induzierten Orientierungshypermotilität erfolgt 30 min nach der Applikation der Substanzen für eine Dauer von 30 min. • Als ED 50 wird die Dosis bestimmt, welche im Vergleich zu Placebo-behandelten Kontrolltieren eine Abnahme der Orientierungshypermotilität um 50 % bewirkt. • 2. Anti-Methamphetamin-Wirkung • Methamphetamin-HCl (2,5 mg/kg i.v.) ruft an Ratten regelmäßig folgende Symptome hervor: motorische Unruhe, Such- und Schnüffelbewegungen, Fellsträuben sowie Tremor (Janssen et al., Arzeim. Forsch./Drug Res. 13, 205, 1963, RANDRUP et al., Psychopharmacologia 11, 300, 1967). • Die Prüfsubstanzen werden 30 min vor Methamphetamin intraperitoneal verabfolgt. Kriterium für einen Substanzeffekt ist das Ausbleiben der Schnüffelbewegungen innerhalb eines 5-minütigen Beobachtungszeitraums nach Methamphetamin-Injektion. • Als mittlere Hemmdosis (ED 50) wird mittels Probitanalyse die Dosis ermittelt, die das Symptom bei der Hälfte der Tiere verhindert. • 3. Hypotensive Wirkung • Die blutdrucksenkende Wirkung wurde an narkotisierten Ratten (Stamm: Spraque Dawley, Gewicht: 230-280 g) in Urethan-Narkose (1,78 g/kg i.p.) nachgewiesen. Der Blutdruck wurde in der Aorta carotis gemessen. Die Substanzapplikation erfolgte in eine Vena jugularis (wäßrige Lösung, 1 ml/kg). Als ED 20 % wurden aus der linearen Regression zwischen log Dosis (mg/kg) und relativer Blutdrucksenkung (Δ%) die Dosen ermittelt, welche eine 20 %ige Blutdrucksenkung bewirken.

[2] = tested on: narkotisierten Ratten (Stamm: Spraque Dawley); assay: Hypotensive effect: blood pressure lowering in urethane-anaesthetised rats; assay type: in vivo, Ratte; conditions: for ED20: Rattus norvegicus, iv, read-out: Blutdrucksenkung ED 20 %; for Blutdrucksenkung ED 20 % R.W. (Relative Wirksamkeit: Chlorpromazin = 1,00) / Blutdrucksenkung ED 20 % R.W. (Relative Wirksamkeit; Chlorpromazin = 1,00): i.v.; for Q (ED 50 % Motilitätshemmung / ED 20 % Blutdrucksenkung): ratio of mouse p.o. ED 50 % to rat i.v. ED 20 %; for hypotensiv wirksame Dosen, -mal größer als die der Referenzsubstanz: rat i.v.
Source text: as §1

[3] = Table 1, Applikation: per. os., measured 30 min after application for 30 min
[4] = Table 1, Ratte, Urethan-Narkose, Applikation: i.v.
[5] = Table 2, Ratte, Urethan-Narkose
[6] = Table 2, Ratte, Urethan-Narkose, Applikation: i.v.
[7] = Table 1, Ratte, Urethan-Narkose

| Compound | ED50 [1, 3] | sedative Wirkung [1] | ED50 ([1]; Table 2, Applikation: per os.) | Blutdrucksenkung ED 20 % R.W. (Relative Wirksamkeit: Chlorpromazin = 1,00) [2, 5] | Q (ED 50 % Motilitätshemmung / ED 20 % Blutdrucksenkung) ([2]; Table 2) | ED20 [2, 6] | further results |
| --- | --- | --- | --- | --- | --- | --- | --- |
| O=C1CCc2c(OCC(O)CN3CCN(c4ccc(F)cc4)CC3)cccc21 (racemic) [Beispiel 1, 4-(3-[4-(4-Fluorphenyl)-1-piperazinyl]-2-hydroxy-propoxy)--indanon-1] | 3.05 mg/kg | sedativ wirken | – | – | – | – | Wirkungsstärke (sedativ) der Referenzsubstanz [1]: 69%; ED20 [2, 4]: 1.07 mg/kg |
| Cc1ccccc1N1CCN(CC(O)COc2cccc3c2CCC3=O)CC1 (racemic) [Beispiel 10, 4-(3-[4-(2-Methylphenyl)-1-pipera-zinyl]-2-hydroxy-propoxy)-indanon-1] | – | – | 46.4 mg/kg | 0,16 | 294 | – | Motilitätshemmung um 50 %: -mal größere Dosen als Referenzsubstanz [1]: 20 mal; Wirksamkeit nach den blutdrucksenkenden Dosen (ED 20 %) von Chlorpromazin ([2]; relative to Chlorpromazin): 16% |
| COc1ccccc1N1CCN(CC(O)COc2cccc3c2CCC3=O)CC1 (racemic) [Beispiel 13, 4-(3-[4-(2-Methoxyphenyl)-1-pipera-zinyl]-2-hydroxy-propoxy)-indanon-1] | – | – | 11 mg/kg | 0,89 | 376 | 0.0293 mg/kg | Motilitätshemmung um 50 %: -mal größere Dosen als Referenzsubstanz [1]: 5 mal; Wirksamkeit nach den blutdrucksenkenden Dosen (ED 20 %) von Chlorpromazin ([2]; relative to Chlorpromazin): 89% |
| COc1cccc(N2CCN(CC(O)COc3cccc4c3CCC4=O)CC2)c1 (racemic) [Beispiel 14, 4-(3-[4-(3-Methoxyphenyl)-1-pipera-zinyl]-2-hydroxy-propoxy)-indanon-1] | 9.44 mg/kg | sedativ wirken | – | – | – | – | Wirkungsstärke (sedativ) der Referenzsubstanz [1]: 22%; ED20 [2, 4]: 1 mg/kg |
| COc1ccccc1N1CCN(CC(O)COc2ccc3c(c2)CCC3=O)CC1 (racemic) [Beispiel 17] | – | – | 13.2 mg/kg | 0,36 | 183 | 0.0722 mg/kg | Quotienten aus den effektiven Dosen für die Motilitätshemmung (ED 50 %) und Blutdrucksenkung (ED 20 %) [2]: 183 |
| COc1ccc(N2CCN(CC(O)COc3ccc4c(c3)CCC4=O)CC2)cc1 (racemic) [Beispiel 19, 5-(3-[4-(4-Methoxyphenyl)-1-piperazi-nyl]-2-hydroxy-propoxy)-indanon-1] | 5.76 mg/kg | sedativ wirken | – | – | – | – | ED20 [2, 4]: 7.91 mg/kg; hypotensiv wirksame Dosen, -mal größer als die der Referenzsubstanz ([2]; relative to Chlorpromazin): 300 mal |
| O=C1CCc2cccc(OCC(O)CN3CCN(c4ccccc4Cl)CC3)c21 (racemic) [Beispiel 20, 7-(3-[4-(2-Chlorphenyl)-1-piperazinyl]--2-hydroxy-propoxy)-indanon-1] | – | – | 42.4 mg/kg | 2,50 | 4077 | 0.0104 mg/kg | Motilitätshemmung um 50 %: -mal größere Dosen als Referenzsubstanz [1]: 20 mal; Quotienten aus den effektiven Dosen für die Motilitätshemmung (ED 50 %) und Blutdrucksenkung (ED 20 %) [2]: 4 077; stärker wirksam als Chlorpromazin (Blutdrucksenkung ED 20 %) ([2]; relative to Chlorpromazin): 2,5 mal |
| COc1ccccc1N1CCN(CC(O)COc2cccc3c2C(=O)CC3)CC1 (racemic) [Beispiel 23, 7-(3-[4-(2-Methoxyphenyl)-1-piperazi-nyl]-2-hydroxy-propoxy)-indanon-1] | – | – | 19 mg/kg | 0,46 | 333 | 0.057 mg/kg | – |
| O=C1CCc2c(OCCCN3CCN(c4ccc(F)cc4)CC3)cccc21 [Beispiel 4, 4-(3-[4-(4-Fluorphenyl)-1-piperazinyl]-propoxy)-indan-1-on] | 3.56 mg/kg | sedativ wirken | – | – | – | – | Blutdrucksenkung ED 20 % R.W. (Relative Wirksamkeit; Chlorpromazin = 1,00) [2, 7]: 0,14 |
| O=C1CCc2cccc(OCCCN3CCN(c4ccc(F)cc4)CC3)c21 [Beispiel 30, 7-(3-[4-(4-Fluorphenyl)-1-piperazinyl]--propoxy)-indanon-1] | 5.03 mg/kg | sedativ wirken | – | – | – | – | Blutdrucksenkung ED 20 % R.W. (Relative Wirksamkeit; Chlorpromazin = 1,00) [2, 7]: 0,16; hypotensiv wirksame Dosen, -mal größer als die der Referenzsubstanz ([2]; relative to Chlorpromazin): 6 mal |
| CN(C)CCCN1c2ccccc2Sc2ccc(Cl)cc21 [Chlorpromazin, reference compound] | 2.11 mg/kg | – | – | 1,00 | 81 | – | Quotienten aus den effektiven Dosen für die Motilitätshemmung (ED 50 %) und Blutdrucksenkung (ED 20 %) [2]: 81; ED20 [2]: 0.026 mg/kg; Blutdrucksenkung ED 20 % R.W. (Relative Wirksamkeit; Chlorpromazin = 1,00) [2, 7]: 1,00; Blutdrucksenkung ED 20 % [2, 6]: 0,0260 mg/kg |
